Reference: US6440972B1, “Heterocyclic compounds useful as oxido-squalene cyclase inhibitors” (Zeneca Limited, priority 1997, dated 2002)

Tests used:
[1] = system: cholesterol biosynthesis; assay: In vivo test to measure inhibition of oxido-squalene cyclase / cholesterol biosynthesis in the rat; conditions: dosed at 2 mg.kg^−1, oral, rat liver
Procedure: (b) In vivo Test to Measure Inhibition of Oxido-squalene Cyclase
The ability of a compound to inhibit oxido-squalene cyclase and/or inhibit cholesterol biosynthesis may be assessed by a routine laboratory procedure carried out in the rat. The test involves administration of the compound to rats on a reversed lighting regimen. Female rats (35-55 g) are housed in reverse lighting conditions (red light from 0200 h-[…]) for a period of about 2 weeks prior to test. Animals are allowed free access to chow and drinking water throughout this period. At test, animals should weigh 100-140 g. The rats are dosed orally with the compound (typically 10-50 mg/kg) formulated in a polyethylene glycol/hydroxypropylmethyl cellulose mix. After 1 hour the rats are given triturated sodium mevalonate (15 μCi.kg^−1) intraperitoneally. Two hours after administration of the compound the rats are terminated and a piece of liver removed and weighed. The tissue is saponified at 80° C. for 2 hours in an ethanolic/potassium hydroxide solution (80% w/v aqueous KOH diluted 1:10 with ethanol). Water (2 ml) is added and the mixture extracted with iso-hexane (2×5 ml). The organic extracts are combined, evaporated to dryness under a stream of nitrogen and the residue is dissolved in a mixture of acetonitrile/iso-propanol (300 μl). […] The radio-label content of each fraction is assessed using a radio chemical flow detector. […]

[2] = molecular target: T1, microsomal oxido-squalene cyclase (Rattus norvegicus, UniProt P48450); assay: In vitro test to measure inhibition of oxido-squalene cyclase (rat liver microsomes); type: biochemical; conditions: concentration of 0.01 μM
T1 construct: Microsomes are prepared from rat liver according to methods known in the art; from tissue; host or cells: rat liver microsomes
T1 sequence (P48450 1-733): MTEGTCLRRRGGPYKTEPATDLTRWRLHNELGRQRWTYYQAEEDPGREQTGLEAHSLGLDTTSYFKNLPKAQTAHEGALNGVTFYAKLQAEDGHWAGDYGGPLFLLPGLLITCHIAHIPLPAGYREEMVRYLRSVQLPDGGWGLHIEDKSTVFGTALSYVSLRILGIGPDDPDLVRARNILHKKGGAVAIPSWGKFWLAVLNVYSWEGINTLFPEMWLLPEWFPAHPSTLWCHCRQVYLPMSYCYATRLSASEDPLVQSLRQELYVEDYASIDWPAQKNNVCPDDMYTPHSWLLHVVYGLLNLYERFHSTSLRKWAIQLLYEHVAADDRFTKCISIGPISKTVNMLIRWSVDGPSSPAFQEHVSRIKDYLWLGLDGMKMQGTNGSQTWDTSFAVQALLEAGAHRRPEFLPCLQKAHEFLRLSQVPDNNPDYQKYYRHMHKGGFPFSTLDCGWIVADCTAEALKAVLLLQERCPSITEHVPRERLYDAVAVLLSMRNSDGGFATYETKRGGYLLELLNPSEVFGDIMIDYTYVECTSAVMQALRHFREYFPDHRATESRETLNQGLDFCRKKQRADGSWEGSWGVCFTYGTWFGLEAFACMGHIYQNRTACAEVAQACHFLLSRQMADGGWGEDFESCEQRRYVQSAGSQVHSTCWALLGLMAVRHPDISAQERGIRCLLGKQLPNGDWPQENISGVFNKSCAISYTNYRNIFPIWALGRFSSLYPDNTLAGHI
Procedure: (a) In vitro Test to Measure Inhibition of Oxido-squalene Cyclase
This test measures the inhibition of microsomal oxido-squalene cyclase in vitro by compounds at set concentrations in the incubation medium.
Microsomes are prepared from rat liver according to methods known in the art, for example, the method described in published European Patent Application No 324,421 and stored in liquid nitrogen prior to assay. Assay vials are kept at 37° C. throughout the incubation. The microsomes typically contain 15-20 mg of protein per ml of microsomes. For the assay, 1 ml of microsomes are diluted by the addition of 722 μl of 50 mM phosphate buffer pH 7.4.
Phosphate buffered Tween® 80 (polyoxyethylene sorbitan […]) is prepared by adding 0.1 g Tween® 80 to 100 ml of 50 mM phosphate buffer.
A stock solution of oxido-squalene is made up as a solution in ethanol (0.65 mg.ml.^−1). 18 μl of radio-labelled oxido-squalene (1 μCi.ml^−1) is evaporated to dryness under a stream of nitrogen and redissolved in 1 ml of ethanol and 1 ml of the stock solution of oxido-squalene is added.
The test compound is dissolved in dimethyl sulphoxide to give a 10^−1M stock solution. […]
The samples are then placed in a water bath at 80° C. for 2 hours to saponify. […] Reaction rate is measured as the conversion of oxido-squalene to lanosterol, and the effects of test compounds are expressed as an inhibition of this process.

| melting point | SMILES | inhibition of rat cholesterol biosynthesis [1] | inhibition of rat microsomal oxido-squalene cyclase [2] |
| --- | --- | --- | --- |
| 192 °C | O=C(C1CCN(c2ccncc2F)CC1)N1CCN(S(=O)(=O)c2ccc(Br)cc2)CC1 | – | – |
| – | O=C(C1CCN(c2ccncc2Cl)CC1)N1CCN(S(=O)(=O)c2ccc(Br)cc2)CC1 [Example 1] | about 79% | about 79% |
